Reference: ChEMBL document CHEMBL4507256 (2021)

How the values were obtained:
[1] = tested on: Tyrosine-protein kinase ABL1 (Homo sapiens), P00519 [F317I]; settings: Compound concentration 1000.0 nM
[2] = biological target: Cyclin-dependent kinase 13 (Homo sapiens) (UniProt Q14004); settings: Compound concentration 1000.0 nM
[3] = biological target: Cyclin-dependent kinase-like 1 (Homo sapiens) (UniProt Q00532); settings: Compound concentration 1000.0 nM
[4] = biological target: Casein kinase I isoform gamma-2 (Homo sapiens) (UniProt P78368); settings: Compound concentration 1000.0 nM
[5] = biological target: Eukaryotic translation initiation factor 2-alpha kinase 1 (Homo sapiens) (UniProt Q9BQI3); settings: Compound concentration 1000.0 nM
[6] = biological target: Ephrin type-B receptor 4 (Homo sapiens) (UniProt P54760); settings: Compound concentration 1000.0 nM
[7] = biological target: Receptor tyrosine-protein kinase erbB-4 (Homo sapiens) (UniProt Q15303); settings: Compound concentration 1000.0 nM
[8] = biological target: Focal adhesion kinase 1 (Homo sapiens) (UniProt Q05397); settings: Compound concentration 1000.0 nM
[9] = tested on: Receptor-type tyrosine-protein kinase FLT3 (Homo sapiens), P36888 [D835Y]; settings: Compound concentration 1000.0 nM
[10] = tested on: Receptor-type tyrosine-protein kinase FLT3 (Homo sapiens), P36888 [UNDEFINED MUTATION]; settings: Compound concentration 1000.0 nM
[11] = biological target: Mitogen-activated protein kinase kinase kinase kinase 1 (Homo sapiens) (UniProt Q92918); settings: Compound concentration 1000.0 nM
[12] = biological target: Inhibitor of nuclear factor kappa-B kinase subunit alpha (Homo sapiens) (UniProt O15111); settings: Compound concentration 1000.0 nM
[13] = biological target: Serine/threonine-protein kinase LATS2 (Homo sapiens) (UniProt Q9NRM7); settings: Compound concentration 1000.0 nM
[14] = biological target: LIM domain kinase 2 (Homo sapiens) (UniProt P53671); settings: Compound concentration 1000.0 nM
[15] = biological target: Serine/threonine-protein kinase STK11 (Homo sapiens) (UniProt Q15831); settings: Compound concentration 1000.0 nM
[16] = biological target: Tyrosine-protein kinase Lyn (Homo sapiens) (UniProt P07948); settings: Compound concentration 1000.0 nM
[17] = biological target: MAP kinase-activated protein kinase 2 (Homo sapiens) (UniProt P49137); settings: Compound concentration 1000.0 nM
[18] = biological target: MAP kinase-interacting serine/threonine-protein kinase 2 (Homo sapiens) (UniProt Q9HBH9); settings: Compound concentration 1000.0 nM
[19] = biological target: Serine/threonine-protein kinase MRCK alpha (Homo sapiens) (UniProt Q5VT25); settings: Compound concentration 1000.0 nM
[20] = biological target: Mitogen-activated protein kinase 14 (Homo sapiens) (UniProt Q16539); settings: Compound concentration 1000.0 nM
[21] = biological target: Serine/threonine-protein kinase PAK 1 (Homo sapiens) (UniProt Q13153); settings: Compound concentration 1000.0 nM
[22] = biological target: Serine/threonine-protein kinase PAK 3 (Homo sapiens) (UniProt O75914); settings: Compound concentration 1000.0 nM
[23] = biological target: Cyclin-dependent kinase 18 (Homo sapiens) (UniProt Q07002); settings: Compound concentration 1000.0 nM
[24] = biological target: Platelet-derived growth factor receptor beta (Homo sapiens) (UniProt P09619); settings: Compound concentration 1000.0 nM
[25] = tested on: Phosphatidylinositol 4,5-bisphosphate 3-kinase catalytic subunit alpha isoform (Homo sapiens), P42336 [E542K]; settings: Compound concentration 1000.0 nM
[26] = biological target: Protein kinase C epsilon type (Homo sapiens) (UniProt Q02156); settings: Compound concentration 1000.0 nM
[27] = biological target: Serine/threonine-protein kinase D2 (Homo sapiens) (UniProt Q9BZL6); settings: Compound concentration 1000.0 nM
[28] = biological target: Serine/threonine-protein kinase RIO3 (Homo sapiens) (UniProt O14730); settings: Compound concentration 1000.0 nM
[29] = biological target: Receptor-interacting serine/threonine-protein kinase 1 (Homo sapiens) (UniProt Q13546); settings: Compound concentration 1000.0 nM
[30] = biological target: Ribosomal protein S6 kinase alpha-5 (Homo sapiens) (UniProt O75582); settings: Compound concentration 1000.0 nM
[31] = biological target: Ribosomal protein S6 kinase alpha-1 (Homo sapiens) (UniProt Q15418); settings: Compound concentration 1000.0 nM
[32] = biological target: Serine/threonine-protein kinase Sgk2 (Homo sapiens) (UniProt Q9HBY8); settings: Compound concentration 1000.0 nM
[33] = biological target: TGF-beta receptor type-1 (Homo sapiens) (UniProt P36897); settings: Compound concentration 1000.0 nM
[34] = biological target: Testis-specific serine/threonine-protein kinase 1 (Homo sapiens) (UniProt Q9BXA7); settings: Compound concentration 1000.0 nM
[35] = biological target: 5-hydroxytryptamine receptor 1B (Homo sapiens) (UniProt P28222); settings: Compound concentration 10.0 uM
[36] = biological target: 5-hydroxytryptamine receptor 1D (Homo sapiens) (UniProt P28221); settings: Compound concentration 10.0 uM
[37] = biological target: 5-hydroxytryptamine receptor 1E (Homo sapiens) (UniProt P28566); settings: Compound concentration 10.0 uM
[38] = biological target: T1, 5-hydroxytryptamine receptor 2C (Homo sapiens) (UniProt P28335); settings: Compound concentration 10.0 uM
T1 sequence (whole entry): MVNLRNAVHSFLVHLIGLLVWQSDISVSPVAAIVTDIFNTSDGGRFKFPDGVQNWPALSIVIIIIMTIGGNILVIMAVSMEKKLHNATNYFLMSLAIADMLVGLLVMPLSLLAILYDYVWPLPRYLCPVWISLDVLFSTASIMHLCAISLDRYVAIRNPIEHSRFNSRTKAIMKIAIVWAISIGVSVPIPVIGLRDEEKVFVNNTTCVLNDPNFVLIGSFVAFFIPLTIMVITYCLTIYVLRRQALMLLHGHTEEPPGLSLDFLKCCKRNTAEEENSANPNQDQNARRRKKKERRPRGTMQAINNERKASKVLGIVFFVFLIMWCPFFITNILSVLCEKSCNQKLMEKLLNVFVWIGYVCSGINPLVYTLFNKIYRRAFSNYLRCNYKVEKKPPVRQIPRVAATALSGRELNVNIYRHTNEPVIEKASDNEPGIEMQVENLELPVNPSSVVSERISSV

[39] = biological target: D(3) dopamine receptor (Homo sapiens) (UniProt P35462); settings: Compound concentration 10.0 uM

Sequence of Serine/threonine-protein kinase PAK 1 (Homo sapiens) (Q13153 whole entry): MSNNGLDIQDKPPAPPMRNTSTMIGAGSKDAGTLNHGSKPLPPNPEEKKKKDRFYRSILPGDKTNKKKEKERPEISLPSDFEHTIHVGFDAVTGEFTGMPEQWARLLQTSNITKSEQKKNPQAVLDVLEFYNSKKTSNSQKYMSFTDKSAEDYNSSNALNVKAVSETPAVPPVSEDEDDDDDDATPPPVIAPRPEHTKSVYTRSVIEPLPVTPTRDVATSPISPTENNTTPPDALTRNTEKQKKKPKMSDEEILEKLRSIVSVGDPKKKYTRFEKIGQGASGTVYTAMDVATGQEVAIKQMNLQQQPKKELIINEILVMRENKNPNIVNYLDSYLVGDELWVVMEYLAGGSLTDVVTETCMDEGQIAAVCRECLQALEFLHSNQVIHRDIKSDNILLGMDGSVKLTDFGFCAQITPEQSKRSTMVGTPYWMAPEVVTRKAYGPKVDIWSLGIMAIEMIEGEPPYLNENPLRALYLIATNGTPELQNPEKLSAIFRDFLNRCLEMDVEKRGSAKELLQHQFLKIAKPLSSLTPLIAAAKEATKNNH
Sequence of LIM domain kinase 2 (Homo sapiens) (P53671 whole entry, looked up, the tested form may be a part): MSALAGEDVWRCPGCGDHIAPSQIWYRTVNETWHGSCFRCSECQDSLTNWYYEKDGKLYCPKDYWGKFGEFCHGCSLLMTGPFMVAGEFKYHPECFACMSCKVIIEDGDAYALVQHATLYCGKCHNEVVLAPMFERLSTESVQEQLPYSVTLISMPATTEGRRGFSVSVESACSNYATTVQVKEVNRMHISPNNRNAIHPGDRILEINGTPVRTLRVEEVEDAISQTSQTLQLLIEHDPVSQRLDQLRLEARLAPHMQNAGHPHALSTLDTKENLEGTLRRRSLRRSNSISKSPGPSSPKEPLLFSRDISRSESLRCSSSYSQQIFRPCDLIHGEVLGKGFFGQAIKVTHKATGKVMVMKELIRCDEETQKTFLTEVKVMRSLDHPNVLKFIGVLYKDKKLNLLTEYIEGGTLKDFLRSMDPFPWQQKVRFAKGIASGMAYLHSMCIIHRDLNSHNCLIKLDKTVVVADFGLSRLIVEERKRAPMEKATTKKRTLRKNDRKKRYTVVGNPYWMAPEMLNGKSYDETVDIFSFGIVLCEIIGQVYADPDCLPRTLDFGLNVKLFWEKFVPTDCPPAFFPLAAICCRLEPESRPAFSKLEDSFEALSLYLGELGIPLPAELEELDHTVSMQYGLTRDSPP
Sequence of Serine/threonine-protein kinase RIO3 (Homo sapiens) (O14730 whole entry): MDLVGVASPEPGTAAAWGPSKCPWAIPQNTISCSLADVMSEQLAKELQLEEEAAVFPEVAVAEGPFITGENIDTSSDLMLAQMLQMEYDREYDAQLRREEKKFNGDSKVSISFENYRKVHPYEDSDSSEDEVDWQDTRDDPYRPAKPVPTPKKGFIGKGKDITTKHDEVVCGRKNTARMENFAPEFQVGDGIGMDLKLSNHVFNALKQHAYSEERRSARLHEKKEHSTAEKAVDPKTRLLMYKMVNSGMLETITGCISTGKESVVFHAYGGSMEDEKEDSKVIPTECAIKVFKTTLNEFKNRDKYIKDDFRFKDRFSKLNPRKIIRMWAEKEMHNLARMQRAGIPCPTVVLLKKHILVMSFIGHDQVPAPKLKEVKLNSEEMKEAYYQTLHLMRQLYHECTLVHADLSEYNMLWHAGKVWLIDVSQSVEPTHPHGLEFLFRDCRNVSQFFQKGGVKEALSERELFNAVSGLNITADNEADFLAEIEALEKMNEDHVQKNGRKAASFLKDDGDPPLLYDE
Sequence of Testis-specific serine/threonine-protein kinase 1 (Homo sapiens) (Q9BXA7 whole entry): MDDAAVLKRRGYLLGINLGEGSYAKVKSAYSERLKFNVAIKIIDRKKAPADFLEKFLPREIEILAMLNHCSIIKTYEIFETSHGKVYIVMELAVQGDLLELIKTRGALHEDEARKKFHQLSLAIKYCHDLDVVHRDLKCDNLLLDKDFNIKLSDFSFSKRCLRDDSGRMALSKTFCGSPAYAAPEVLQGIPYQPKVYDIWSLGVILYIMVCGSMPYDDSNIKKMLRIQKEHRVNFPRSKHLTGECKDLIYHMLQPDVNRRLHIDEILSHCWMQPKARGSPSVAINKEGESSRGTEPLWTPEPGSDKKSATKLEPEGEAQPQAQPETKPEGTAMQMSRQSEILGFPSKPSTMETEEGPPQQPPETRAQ
Sequence of Serine/threonine-protein kinase STK11 (Homo sapiens) (Q15831 whole entry): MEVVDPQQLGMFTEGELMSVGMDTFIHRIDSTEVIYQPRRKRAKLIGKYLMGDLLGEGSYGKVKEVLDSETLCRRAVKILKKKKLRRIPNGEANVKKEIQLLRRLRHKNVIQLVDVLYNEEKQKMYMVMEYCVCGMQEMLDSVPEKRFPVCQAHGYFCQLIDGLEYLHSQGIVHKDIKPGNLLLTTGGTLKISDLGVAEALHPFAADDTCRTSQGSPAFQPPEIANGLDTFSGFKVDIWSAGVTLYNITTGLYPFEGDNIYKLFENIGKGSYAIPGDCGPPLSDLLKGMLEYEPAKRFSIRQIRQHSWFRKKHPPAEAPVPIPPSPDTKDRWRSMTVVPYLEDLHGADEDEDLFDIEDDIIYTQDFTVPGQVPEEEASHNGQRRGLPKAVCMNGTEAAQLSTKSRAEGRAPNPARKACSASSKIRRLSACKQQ
Sequence of Serine/threonine-protein kinase D2 (Homo sapiens) (Q9BZL6 whole entry): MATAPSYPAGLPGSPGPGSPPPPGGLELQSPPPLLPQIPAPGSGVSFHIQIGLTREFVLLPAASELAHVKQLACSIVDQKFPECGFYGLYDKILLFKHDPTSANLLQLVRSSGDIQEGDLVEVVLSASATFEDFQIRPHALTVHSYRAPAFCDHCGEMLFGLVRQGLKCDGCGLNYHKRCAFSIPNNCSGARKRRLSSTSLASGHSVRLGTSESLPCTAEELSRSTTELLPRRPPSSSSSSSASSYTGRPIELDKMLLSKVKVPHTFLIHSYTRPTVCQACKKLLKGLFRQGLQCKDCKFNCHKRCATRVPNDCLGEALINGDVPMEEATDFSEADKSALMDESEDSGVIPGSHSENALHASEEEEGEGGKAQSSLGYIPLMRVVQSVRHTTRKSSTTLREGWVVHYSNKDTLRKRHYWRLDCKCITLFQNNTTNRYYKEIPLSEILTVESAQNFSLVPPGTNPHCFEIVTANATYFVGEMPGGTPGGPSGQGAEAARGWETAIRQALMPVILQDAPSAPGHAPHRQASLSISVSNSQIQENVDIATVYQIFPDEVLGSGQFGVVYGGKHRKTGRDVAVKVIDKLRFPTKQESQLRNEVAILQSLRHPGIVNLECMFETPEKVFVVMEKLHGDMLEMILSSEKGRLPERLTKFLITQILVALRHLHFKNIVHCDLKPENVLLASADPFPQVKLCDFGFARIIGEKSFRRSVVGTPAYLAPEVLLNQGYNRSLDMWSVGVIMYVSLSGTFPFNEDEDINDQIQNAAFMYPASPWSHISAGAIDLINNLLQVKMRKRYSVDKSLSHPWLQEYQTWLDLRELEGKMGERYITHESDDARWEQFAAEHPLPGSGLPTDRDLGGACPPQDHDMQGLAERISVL
Sequence of Serine/threonine-protein kinase LATS2 (Homo sapiens) (Q9NRM7 whole entry, the tested form may be a part): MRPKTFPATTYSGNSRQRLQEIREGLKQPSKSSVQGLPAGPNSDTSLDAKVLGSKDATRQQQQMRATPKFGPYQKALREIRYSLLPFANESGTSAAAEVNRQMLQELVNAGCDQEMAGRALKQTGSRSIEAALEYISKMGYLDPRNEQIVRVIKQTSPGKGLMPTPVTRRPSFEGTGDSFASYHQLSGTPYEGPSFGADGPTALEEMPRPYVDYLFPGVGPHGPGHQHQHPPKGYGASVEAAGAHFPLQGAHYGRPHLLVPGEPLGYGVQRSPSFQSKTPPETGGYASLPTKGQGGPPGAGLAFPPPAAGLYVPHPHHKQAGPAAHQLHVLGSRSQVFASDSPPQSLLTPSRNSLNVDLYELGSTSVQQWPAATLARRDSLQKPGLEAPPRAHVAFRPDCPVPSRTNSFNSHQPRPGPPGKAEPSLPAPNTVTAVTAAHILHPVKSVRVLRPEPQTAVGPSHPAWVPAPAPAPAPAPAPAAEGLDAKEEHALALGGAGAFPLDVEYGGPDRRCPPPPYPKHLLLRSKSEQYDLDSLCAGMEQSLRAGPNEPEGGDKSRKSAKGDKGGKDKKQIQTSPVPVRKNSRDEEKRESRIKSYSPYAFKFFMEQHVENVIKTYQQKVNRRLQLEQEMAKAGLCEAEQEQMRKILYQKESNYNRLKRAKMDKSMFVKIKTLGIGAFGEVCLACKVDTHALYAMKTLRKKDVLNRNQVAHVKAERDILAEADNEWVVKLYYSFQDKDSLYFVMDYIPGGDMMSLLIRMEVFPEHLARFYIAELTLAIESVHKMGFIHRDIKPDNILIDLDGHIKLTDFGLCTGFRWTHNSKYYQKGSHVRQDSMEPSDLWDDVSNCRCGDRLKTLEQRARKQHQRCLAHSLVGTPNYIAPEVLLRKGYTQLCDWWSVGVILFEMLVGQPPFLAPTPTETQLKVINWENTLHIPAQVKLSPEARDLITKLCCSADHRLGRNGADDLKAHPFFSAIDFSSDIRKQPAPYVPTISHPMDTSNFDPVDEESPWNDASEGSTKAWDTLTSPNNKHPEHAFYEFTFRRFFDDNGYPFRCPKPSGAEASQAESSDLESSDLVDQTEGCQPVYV
Sequence of MAP kinase-interacting serine/threonine-protein kinase 2 (Homo sapiens) (Q9HBH9 whole entry, looked up): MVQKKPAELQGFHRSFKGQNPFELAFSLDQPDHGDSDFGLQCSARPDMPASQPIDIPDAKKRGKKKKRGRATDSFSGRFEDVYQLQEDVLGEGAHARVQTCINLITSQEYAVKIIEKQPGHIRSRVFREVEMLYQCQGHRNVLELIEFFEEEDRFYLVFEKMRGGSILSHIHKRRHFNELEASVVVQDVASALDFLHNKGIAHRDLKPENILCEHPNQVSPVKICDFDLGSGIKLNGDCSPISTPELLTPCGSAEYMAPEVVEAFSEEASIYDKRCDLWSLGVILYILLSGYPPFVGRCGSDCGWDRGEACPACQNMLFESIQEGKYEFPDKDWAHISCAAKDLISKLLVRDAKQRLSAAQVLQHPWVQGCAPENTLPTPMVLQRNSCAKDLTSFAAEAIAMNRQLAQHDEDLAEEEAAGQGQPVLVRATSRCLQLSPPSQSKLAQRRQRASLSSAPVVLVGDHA

CCC(=N\O)/C(C)=C/c1ccc(F)c(C)c1 [A-226]
inactive: residual activity [1] 100% | residual activity [2] 100% | residual activity [3] 91% | residual activity [4] 100% | residual activity [5] 100% | residual activity [6] 100% | residual activity [7] 98% | residual activity [8] 100% | residual activity [9] 100% | residual activity [10] 100% | residual activity [11] 100% | residual activity [12] 95% | residual activity [13] 75% | residual activity [14] 90% | residual activity [15] 100% | residual activity [16] 100% | residual activity [17] 94% | residual activity [18] 100% | residual activity [19] 100% | residual activity [20] 100% | residual activity [21] 70% | residual activity [22] 63% | residual activity [23] 87% | residual activity [24] 86% | residual activity [25] 54% | residual activity [26] 62% | residual activity [27] 100% | residual activity [28] 100% | residual activity [29] 100% | residual activity [30] 78% | residual activity [31] 96% | residual activity [32] 100% | residual activity [33] 88% | residual activity [34] 90% | inhibition [35] -1.04% | inhibition [36] 4.54% | inhibition [37] 4.47% | inhibition [38] 27% | inhibition [39] 8.6%

CCC(=N\O)/C(C)=C/c1ccc(F)cc1 [A-079]
inactive: residual activity [1] 100% | residual activity [2] 95% | residual activity [3] 81% | residual activity [4] 87% | residual activity [5] 100% | residual activity [6] 73% | residual activity [7] 66% | residual activity [8] 82% | residual activity [9] 91% | residual activity [10] 67% | residual activity [11] 92% | residual activity [12] 67% | residual activity [13] 100% | residual activity [14] 80% | residual activity [15] 100% | residual activity [16] 87% | residual activity [17] 69% | residual activity [18] 100% | residual activity [19] 100% | residual activity [20] 100% | residual activity [21] 88% | residual activity [22] 89% | residual activity [23] 89% | residual activity [24] 100% | residual activity [25] 100% | residual activity [26] 76% | residual activity [27] 99% | residual activity [28] 78% | residual activity [29] 82% | residual activity [30] 100% | residual activity [31] 100% | residual activity [32] 78% | residual activity [33] 85% | residual activity [34] 82% | inhibition [35] 7.88% | inhibition [36] 13.9% | inhibition [37] 6.66% | inhibition [38] 32.7% | inhibition [39] 14.5%
